According to patent US6806229B1, “Herbicidally active pyridine sulfonyl urea derivatives” (LG Life Sciences, priority 2003, dated 2004):
Like-named read-outs stand apart in the source and are kept apart here.

Legend:
Oryza sativa = test: Phytotoxicity to rice (direct-seeded and transplanted) in paddy condition, greenhouse pot test; type: in vivo; settings: visual rating after two weeks; for Phytotoxicity, Oryza sativa, Seed: direct-seeded rice, treated 5 days after sowing; for Phytotoxicity, Oryza sativa, Transplanted: transplanted rice seedlings, treated 5 days after transplanting
From the text: (§1) Pots having a surface area of 150 cm^2 were filled with a small amount of fertilizer and sterilized paddy field soil in a muddy state with a depth of 5 cm. Five (5) seeds of pre-germinated rice were directly sown on the soil surface and three (3) rice seedlings (2˜3 leaves) prepared in advance were transplanted in a depth of 2 cm in each pot. In another pot, seeds of barnyardgrass were sown and incorporated into the surface layer of soil. After sowing and transplanting of rice plant and sowing of barnyardgrass, the pots were flooded with water 3 cm deep and kept in a greenhouse. The rice plant was treated with the chemicals 5 days after sowing or transplanting, and barnyardgrass was treated with the chemicals at the pre-emergence (5 days after from sowing) and post-emergence stage (at the three-leaf stage, usually after 15 days from sowing).
(§2) Suitable herbicidal compositions were prepared by mixing and dissolving 1 part by weight of the active compound with 5 parts by weight of acetone and 1 part by weight of alkylaryl polyglycolether as an emulsifier and then diluting with water to the predetermined concentration. Application was made by dropping the herbicide solutions onto the water surface of the pots.

Echinochloa crus-galli = test: Herbicidal activity to barnyardgrass in paddy condition, pre- and post-emergence, greenhouse pot test; type: in vivo; settings: for pest or weed control at 5 g/ha / pest or weed control at 10 g/ha / pest or weed control at 20 g/ha / pest or weed control at 30 g/ha: Echinochloa crus-galli, 336 h, visual rating after two weeks
From the text: as §1, §2

[1] = 80 g/ha, 0 = none, 100 = complete death
[2] = post-emergence, three-leaf stage, read-out: Herbicidal activity, Echinochloa crus-galli, Post-emergence (3-Leaf stage)
[3] = pre-emergence (5 days after sowing), read-out: Herbicidal activity, Echinochloa crus-galli, Pre-emergence
[4] = 20 g/ha, post-emergence, three-leaf stage, read-out: Herbicidal activity, Echinochloa crus-galli, Post-emergence (3-Leaf stage)
[5] = 20 g/ha, pre-emergence (5 days after sowing), read-out: Herbicidal activity, Echinochloa crus-galli, Pre-emergence
[6] = pre-emergence (5 days after sowing), 0 = no activity, 100 = complete death, read-out: Herbicidal activity, Echinochloa crus-galli, Pre-emergence

SMILES	Phytotoxicity, Oryza sativa, Seed (Oryza sativa; 10 g/ha) [%]	Phytotoxicity, Oryza sativa, Transplanted (Oryza sativa; 10 g/ha) [%]	Phytotoxicity, Oryza sativa, Seed (Oryza sativa; 20 g/ha) [%]	Phytotoxicity, Oryza sativa, Transplanted (Oryza sativa; 20 g/ha) [%]	Phytotoxicity, Oryza sativa, Seed (Oryza sativa; 40 g/ha) [%]	Phytotoxicity, Oryza sativa, Transplanted (Oryza sativa; 40 g/ha) [%]	Phytotoxicity, Oryza sativa, Seed (Oryza sativa; [1]) [%]	Phytotoxicity, Oryza sativa, Transplanted (Oryza sativa; 80 g/ha) [%]	pest or weed control at 5 g/ha (Echinochloa crus-galli; [2]) [%]	pest or weed control at 5 g/ha (Echinochloa crus-galli; [3]) [%]	pest or weed control at 10 g/ha (Echinochloa crus-galli; [2]) [%]	pest or weed control at 10 g/ha (Echinochloa crus-galli; [3]) [%]	pest or weed control at 20 g/ha (Echinochloa crus-galli; [4]) [%]	pest or weed control at 20 g/ha (Echinochloa crus-galli; [5]) [%]	pest or weed control at 30 g/ha (Echinochloa crus-galli; [2]) [%]	pest or weed control at 30 g/ha (Echinochloa crus-galli; [6]) [%]	herbicidal activity to barnyardgrass (Echinochloa crus-galli; 20 g/ha, pre- or post-emergence treatments) [%]
COc1cc(OC)nc(NC(=O)NS(=O)(=O)c2cccnc2[C@@H](OC(=O)CO)[C@H](C)F)n1 [Com. 1]	0	0	10	10	30	10	30	20	60	50	80	80	90	90	100	90	
COc1cc(OC)nc(NC(=O)NS(=O)(=O)c2cccnc2[C@@H](OC(=O)CCO)[C@H](C)F)n1 [Com. 3]	0	5	10	10	30	20	30	20	60	60	80	90	90	95	100	100	
COCC(=O)O[C@H](c1nccc(Cl)c1S(=O)(=O)NC(=O)Nc1nc(OC)cc(OC)n1)[C@H](C)F [Com. 5]	0	0	10	0	20	0	30	20	60	50	70	80	90	90	100	100	
COCC(=O)O[C@H](c1nccc(Br)c1S(=O)(=O)NC(=O)Nc1nc(OC)cc(OC)n1)[C@H](C)F [Com. 6]	0	0	0	0	10	0	20	20	50	60	70	80	90	100	100	100	
COCC(=O)O[C@H](c1nccc(C)c1S(=O)(=O)NC(=O)Nc1nc(OC)cc(OC)n1)[C@H](C)F [Com. 7]	0	0	0	0	20	10	30	20	50	60	80	80	95	90	100	100	
COc1cc(OC)nc(NC(=O)NS(=O)(=O)c2ccccc2[C@@H](O)[C@H](C)F)n1 [Standard Compound A, reference compound]	40	20	40	30	50	40	80	70	60	60	90	100	95	100	100	100	
COc1cc(OC)nc(NC(=O)NS(=O)(=O)c2ccccc2[C@@H](OC(C)=O)[C@H](C)F)n1 [Standard Compound B, reference compound]	30	20	40	20	50	40	70	60	50	50	90	100	90	100	100	100	
COc1cc(OC)nc(NC(=O)NS(=O)(=O)c2cccnc2[C@@H](O)[C@H](C)F)n1 [Standard Compound C, reference compound]	10	10	20	20	30	30	70	50	60	40	90	100	100	100	100	100	
COc1cc(OC)nc(NC(=O)NS(=O)(=O)c2cccnc2[C@@H](OC(C)=O)[C@H](C)F)n1 [Standard Compound D, reference compound]	10	0	20	10	30	20	60	50	50	30	90	100	100	100	100	100	
CCOC(=O)c1cnn(C)c1S(=O)(=O)NC(=O)Nc1nc(OC)cc(OC)n1 [Standard Compound E, Pyrazosulfuron-ethyl, reference compound]	0	0	10	0	20	0	30	10	0	0	0	10	0	20	20	30	10
